# Experimental data: ChEMBL document CHEMBL1777699, “Part 2: Design, synthesis and evaluation of hydroxyproline-derived α2δ ligands” (Bioorg Med Chem Lett, 2011)
# pIC50: −log10 of the molar value.
# Columns and labels:
# [1] = Lipophilicity, log D of the compound; type: physicochemical; conditions: octanol/water
# [2] = Half life in rat; type: ADME, organism-based; conditions: in vivo
# [3] = Displacement of [3H]gabapentin from voltage gated calcium channel alpha2delta from pig cerebral cortex by scintillation counting; type: tissue-based, Sus scrofa
# Rattus norvegicus = organism: Rattus norvegicus; test: Unbound clearance in rat; type: ADME, organism-based; conditions: in vivo
# [4] = Plasma protein binding in human; type: ADME, cell-free; conditions: read-out: PPB (converted)
# [5] = Half life in dog; type: ADME, organism-based, Canis lupus familiaris; conditions: in vivo
# Canis familiaris = organism: Canis familiaris; test: Unbound clearance in dog; type: ADME, organism-based, Canis lupus familiaris; conditions: in vivo
# [6] = Tmax in human; type: ADME; conditions: plasma
# Plasma = test: Cmax in human; type: ADME, organism-based; conditions: in vivo
# [7] = Half life in human; type: ADME, cell-free; conditions: plasma
# [8] = Drug level in rat urine after 24 hrs; type: ADME; conditions: read-out: Drug uptake
structure (smiles),measurement,setting,value
O=C(O)[C@@H]1C[C@H](OCc2ccc(Cl)cc2)CN1,logD,[1],-0.2
same,half-life,[2],24 min
same,pIC50,[3],7.32
same,CL free,Rattus norvegicus,26 mL/min/kg
same,fraction unbound,[4],0.17
C[C@@H](CNCC(=O)O)Oc1ccc(Cl)cc1,pIC50,[3],6.28
O=C(O)CNCCSc1ccc(Cl)cc1,pIC50,[3],6.71
O=C(O)CNCCOc1ccc(Cl)cc1,pIC50,[3],< 5.10
O=C(O)[C@@H]1C[C@H](Sc2ccc(Cl)cc2)CN1,pIC50,[3],7.14
O=C(O)[C@@H]1C[C@H](Oc2ccc(Cl)cc2)CN1,pIC50,[3],7.49
O=C(O)[C@H]1C[C@@H](Oc2ccc(Cl)cc2)CN1,pIC50,[3],< 5.00
Cl.O=C(O)[C@@H]1C[C@H](Oc2cccc(Cl)c2)CN1,half-life,[5],90 min
same,CL free,Canis familiaris,49 mL/min/kg
same,logD,[1],-0.1
same,Tmax,[6],30 min
same,half-life,[2],24 min
same,pIC50,[3],8.40
same,Cmax,Plasma,2400 nM
same,CL free,Rattus norvegicus,41 mL/min/kg
same,fraction unbound,[4],0.07
same,half-life,[7],138 min
O=C(O)[C@@H]1C[C@H](Oc2ccccc2)CN1,pIC50,[3],6.99
O=C(O)[C@@H]1C[C@H](Oc2ccc(Cl)cn2)CN1,pIC50,[3],6.40
O=C(O)[C@@H]1C[C@H](Oc2ccc3c(c2)OCC3)CN1,logD,[1],-0.1
same,half-life,[2],60 min
same,pIC50,[3],7.96
same,CL free,Rattus norvegicus,111 mL/min/kg
same,fraction unbound,[4],0.11
O=C(O)[C@@H]1C[C@H](Oc2ccc3ccccc3c2)CN1,pIC50,[3],7.52
O=C(O)[C@@H]1C[C@H](Oc2ccc(OC(F)(F)F)cc2)CN1,pIC50,[3],5.77
O=C(O)[C@@H]1C[C@H](Oc2cccc(F)c2)CN1,pIC50,[3],7.77
O=C(O)[C@@H]1C[C@H](Oc2ccccc2Cl)CN1,pIC50,[3],7.28
CCC(C)O[C@@H]1CN[C@H](C(=O)O)C1 (stereo partly drawn),pIC50,[3],6.57
N#Cc1ccccc1O[C@@H]1CN[C@H](C(=O)O)C1,pIC50,[3],< 5.00
O=C(O)[C@@H]1C[C@H](Oc2cccc(O)c2)CN1,pIC50,[3],7.03
O=C(O)[C@@H]1C[C@H](Oc2ccc(Cl)c(F)c2)CN1,logD,[1],0.1
same,half-life,[2],90 min
same,pIC50,[3],7.59
same,CL free,Rattus norvegicus,108 mL/min/kg
same,fraction unbound,[4],0.05
O=C(O)[C@@H]1C[C@H](OCc2cccc(Cl)c2)CN1,pIC50,[3],7.85
O=C(O)[C@@H]1C[C@H](Sc2cccc(Cl)c2)CN1,logD,[1],0.3
same,half-life,[2],18 min
same,pIC50,[3],8.15
same,CL free,Rattus norvegicus,56 mL/min/kg
same,fraction unbound,[4],0.16
CC(C)(C)OC(=O)[C@@H]1C[C@H](Oc2cccc(Cl)c2)CN1,pIC50,[3],6.49
CC(C)(C)OC(=O)N1C[C@@H](Oc2cccc(Cl)c2)C[C@H]1C(=O)O,pIC50,[3],< 6.00
CCCN1C[C@@H](Oc2cccc(Cl)c2)C[C@H]1C(=O)O,pIC50,[3],< 6.00
COC(=O)[C@@H]1C[C@H](Oc2cccc(Cl)c2)CN1C(=O)OC(C)(C)C,dose excreted at 24 h,[8],85%
C[C@@]1(C(=O)O)C[C@H](Oc2cccc(Cl)c2)CN1 (stereo in doubt; 36),pIC50,[3],5.90
C[C@@]1(C(=O)O)C[C@H](Oc2cccc(Cl)c2)CN1 (stereo in doubt; 37),pIC50,[3],< 5.00
